Assay results taken from US8952024B2, “Herbicidal pyrimidone derivatives” (E I du Pont de Nemours and Company, priority 2009, dated 2015).

Tests used:
Assay in all cases: Test B pre-/postemergence plant response
Type in all cases: in vivo
[1] = system: wheat (Triticum aestivum)
Procedure, shortened: (§1)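 Visually scored on a 0 to 100 scale after 13 to 15 days in greenhouse versus controls. Treatments were preemergence on seeded loam/sand soil and postemergence on 1- to 4-leaf plants.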

[2] = system: green foxtail (Setaria viridis)
Procedure, shortened: as §1

[3] = system: johnsongrass (Sorghum halepense)
Procedure, shortened: as §1

[4] = system: pigweed (Amaranthus retroflexus)
Procedure, shortened: as §1

[5] = system: goosegrass (Eleusine indica)
Procedure, shortened: as §1

[6] = system: giant foxtail (Setaria faberii)
Procedure, shortened: as §1

[7] = system: yellow nutsedge (Cyperus esculentus)
Procedure, shortened: as §1

kochia (Kochia scoparia) = system: kochia (Kochia scoparia)
Procedure, shortened: as §1

[8] = system: woolly cupgrass (Eriochloa villosa)
Procedure, shortened: as §1

[9] = system: large crabgrass (Digitaria sanguinalis)
Procedure, shortened: as §1

[10] = system: lambsquarters (Chenopodium album)
Procedure, shortened: as §1

[11] = system: downy bromegrass (Bromus tectorum)
Procedure, shortened: as §1

[12] = system: velvetleaf (Abutilon theophrasti)
Procedure, shortened: as §1

[13] = 31 g ai/ha, postemergence, scale 0 to 100, 0 is no effect, 100 is complete control
[14] = 62 g ai/ha, postemergence, 0 is no effect, 100 is complete control, 13 to 15 days
[15] = Postemergence, 125 g ai/ha, visual rating after 13 to 15 days, scale 0 (no effect) to 100 (complete control)
[16] = Postemergence, 250 g ai/ha, scale 0 to 100 (0 no effect, 100 complete control)

## O=C1CCCC(O)=C1C(=O)c1cnc(-c2ccccc2Br)n(-c2ccccc2)c1=O [Compound 71]
[1]; [13]
  Plant response rating, Wheat: 0
[1]; [14]
  Wheat plant response rating (0 to 100 scale): 0
[1]; [15]
  Plant response rating, Wheat: 0
[1]; [16]
  Plant response rating, Wheat: 5
[2]; [13]
  Plant response rating, Foxtail, Green: 60
[2]; [14]
  Foxtail, Green plant response rating (0 to 100 scale): 60
[2]; [15]
  Plant response rating, Foxtail, Green: 70
[2]; [16]
  Plant response rating, Foxtail, Green: 98
[3]; [13]
  Plant response rating, Johnsongrass: 65
[3]; [14]
  Johnsongrass plant response rating (0 to 100 scale): 75
[3]; [15]
  Plant response rating, Johnsongrass: 98
[3]; [16]
  Plant response rating, Johnsongrass: 100
[4]; [13]
  Plant response rating, Pigweed: 85
[4]; [14]
  Pigweed plant response rating (0 to 100 scale): 85
[4]; [15]
  Plant response rating, Pigweed: 98
[4]; [16]
  Plant response rating, Pigweed: 100
[5]; [13]
  Plant response rating, Goosegrass: 75
[5]; [14]
  Goosegrass plant response rating (0 to 100 scale): 75
[5]; [15]
  Plant response rating, Goosegrass: 90
[5]; [16]
  Plant response rating, Goosegrass: 90
[6]; [13]
  Plant response rating, Foxtail, Giant: 20
[6]; [14]
  Foxtail, Giant plant response rating (0 to 100 scale): 75
[6]; [15]
  Plant response rating, Foxtail, Giant: 80
[6]; [16]
  Plant response rating, Foxtail, Giant: 95
[7]; [13]
  Plant response rating, Nutsedge, Yellow: 10
[7]; [14]
  Nutsedge, Yellow plant response rating (0 to 100 scale): 10
[7]; [15]
  Plant response rating, Nutsedge, Yellow: 10
[7]; [16]
  Plant response rating, Nutsedge, Yellow: 25
Kochia (Kochia scoparia); [13]
  Plant response rating, Kochia: 0
Kochia (Kochia scoparia); [14]
  Kochia plant response rating (0 to 100 scale): 0
Kochia (Kochia scoparia); [15]
  Plant response rating, Kochia: 25
Kochia (Kochia scoparia); [16]
  Plant response rating, Kochia: 65
[8]; [13]
  Plant response rating, Cupgrass, Woolly: 10
[8]; [14]
  Cupgrass, Woolly plant response rating (0 to 100 scale): 45
[8]; [15]
  Plant response rating, Cupgrass, Woolly: 85
[8]; [16]
  Plant response rating, Cupgrass, Woolly: 100
[9]; [13]
  Plant response rating, Crabgrass, Large: 65
[9]; [14]
  Crabgrass, Large plant response rating (0 to 100 scale): 75
[9]; [15]
  Plant response rating, Crabgrass, Large: 80
[9]; [16]
  Plant response rating, Crabgrass, Large: 95
[10]; [13]
  Plant response rating, Lambsquarters: 75
[10]; [14]
  Lambsquarters plant response rating (0 to 100 scale): 85
[10]; [15]
  Plant response rating, Lambsquarters: 90
[10]; [16]
  Plant response rating, Lambsquarters: 98
[11]; [13]
  Plant response rating, Bromegrass, Downy: 0
[11]; [14]
  Bromegrass, Downy plant response rating (0 to 100 scale): 5
[11]; [15]
  Plant response rating, Bromegrass, Downy: 10
[11]; [16]
  Plant response rating, Bromegrass, Downy: 30
[12]; [13]
  Plant response rating, Velvetleaf: 75
[12]; [14]
  Velvetleaf plant response rating (0 to 100 scale): 85
[12]; [15]
  Plant response rating, Velvetleaf: 90
[12]; [16]
  Plant response rating, Velvetleaf: 95
